Test results from PubChem BioAssay AID248 (DTP/NCI, 2004).
Several values for one entry are separate records, joined by “and”; a condition that tells them apart may be missing. Equal entries are not always repeated. Inconclusive results and toxic doses are left out. Cut-off read from the data, not from the text of the source: active = T/C of 150% or more; inactive = T/C below 125%.

System: L1210 leukemia ip in BDF1 mice, survival T/C
Assay: NCI In Vivo Anticancer Drug Screen. Data for tumor model L1210 Leukemia (intraperitoneal) in B6D2F1 (BDF1) mice
Settings: higher = longer survival
Procedure, shortened: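 Transplanted-tumor mice were given test agent; controls received vehicle only. Survival readings from the two groups were divided (treated over control).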

Measured: T/C

O=c1[nH]c(=O)n(C2CC(O)C(CO)O2)cc1F (configuration not stated)
inactive: endpoint: mean survival time, dose: 2.3 mg/kg/injection, schedule: Q01DX009 (ip), vehicle: saline 95 % of control and 100 % of control | endpoint: mean survival time, dose: 2.5 mg/kg/injection, schedule: Q01DX009 (ip), vehicle: saline 105 % of control | endpoint: mean survival time, dose: 3.12 mg/kg/injection, schedule: Q#A X Z (ip), vehicle: saline 109 % of control | endpoint: mean survival time, dose: 4.5 mg/kg/injection, schedule: Q01DX009 (ip), vehicle: saline 106 % of control | endpoint: mean survival time, dose: 5.0 mg/kg/injection, schedule: Q01DX009 (ip), vehicle: saline 103 % of control | endpoint: mean survival time, dose: 5.0 mg/kg/injection, schedule: Q01DX009 (oral), vehicle: saline 105 % of control | endpoint: mean survival time, dose: 6.25 mg/kg/injection, schedule: Q01DX Z (ip), vehicle: saline 105 % of control | endpoint: mean survival time, dose: 6.25 mg/kg/injection, schedule: Q#A X Z (ip), vehicle: saline 114 % of control | endpoint: mean survival time, dose: 9.0 mg/kg/injection, schedule: Q01DX009 (ip), vehicle: saline 103 % of control and 110 % of control | endpoint: mean survival time, dose: 10.0 mg/kg/injection, schedule: Q01DX005 (ip), vehicle: water 99 % of control and 102 % of control | endpoint: mean survival time, dose: 10.0 mg/kg/injection, schedule: Q01DX009 (ip), vehicle: saline 112 % of control | endpoint: mean survival time, dose: 10.0 mg/kg/injection, schedule: Q01DX009 (oral), vehicle: saline 98 % of control | endpoint: mean survival time, dose: 11.0 mg/kg/injection, schedule: Q07DX Z (ip), vehicle: saline 106 % of control | endpoint: mean survival time, dose: 12.5 mg/kg/injection, schedule: Q01DX Z (ip), vehicle: saline 111 % of control | endpoint: mean survival time, dose: 18.0 mg/kg/injection, schedule: Q04DX002 (ip), vehicle: saline 106 % of control and 115 % of control | endpoint: mean survival time, dose: 20.0 mg/kg/injection, schedule: Q01DX009 (oral), vehicle: saline 105 % of control | endpoint: mean survival time, dose: 20.0 mg/kg/injection, schedule: Q01DX015 (ip), vehicle: water 111 % of control | endpoint: mean survival time, dose: 20.0 mg/kg/injection, schedule: Q01DX Z (ip), vehicle: saline 105 % of control | endpoint: mean survival time, dose: 22.0 mg/kg/injection, schedule: Q07DX Z (ip), vehicle: saline 102 % of control | endpoint: mean survival time, dose: 25.0 mg/kg/injection, schedule: Q01DX006 (iv), vehicle: saline 110 % of control | endpoint: mean survival time, dose: 25.0 mg/kg/injection, schedule: Q01DX Z (ip), vehicle: saline 111 % of control | endpoint: mean survival time, dose: 25.0 mg/kg/injection, schedule: Q01DX Z (sc), vehicle: saline 111 % of control | endpoint: mean survival time, dose: 25.9 mg/kg/injection, schedule: Q01DX009 (ip), vehicle: saline 115 % of control | endpoint: mean survival time, dose: 29.0 mg/kg/injection, schedule: Q02DX008 (ip), vehicle: water 98 % of control | endpoint: mean survival time, dose: 30.0 mg/kg/injection, schedule: Q01DX015 (ip), vehicle: water 108 % of control | endpoint: mean survival time, dose: 30.0 mg/kg/injection, schedule: Q01DX Z (ip), vehicle: saline 106 % of control | endpoint: mean survival time, dose: 36.0 mg/kg/injection, schedule: Q04DX002 (ip), vehicle: saline 100 % of control and 110 % of control | endpoint: mean survival time, dose: 40.0 mg/kg/injection, schedule: Q01DX Z (ip), vehicle: saline 112 % of control | endpoint: mean survival time, dose: 42.0 mg/kg/injection, schedule: Q02DX008 (ip), vehicle: water 101 % of control | endpoint: mean survival time, dose: 44.0 mg/kg/injection, schedule: Q07DX Z (ip), vehicle: saline 106 % of control | endpoint: mean survival time, dose: 50.0 mg/kg/injection, schedule: Q01DX001 (ip), vehicle: saline 107 % of control | endpoint: mean survival time, dose: 50.0 mg/kg/injection, schedule: Q01DX Z (oral), vehicle: saline 107 % of control | endpoint: mean survival time, dose: 50.0 mg/kg/injection, schedule: Q02DX009 (ip), vehicle: saline 110 % of control | endpoint: mean survival time, dose: 50.0 mg/kg/injection, schedule: Q04DX003 (ip), vehicle: saline 105 % of control | endpoint: mean survival time, dose: 60.0 mg/kg/injection, schedule: Q## X004 (ip), vehicle: water 108 % of control | endpoint: mean survival time, dose: 63.0 mg/kg/injection, schedule: Q02DX008 (ip), vehicle: water 111 % of control | endpoint: mean survival time, dose: 75.0 mg/kg/injection, schedule: Q03DX006 (ip), vehicle: saline 111 % of control | endpoint: mean survival time, dose: 80.0 mg/kg/injection, schedule: Q01DX Z (ip), vehicle: saline 102 % of control | endpoint: mean survival time, dose: 80.0 mg/kg/injection, schedule: Q## X032 (ip), vehicle: water 108 % of control | endpoint: mean survival time, dose: 88.0 mg/kg/injection, schedule: Q07DX Z (ip), vehicle: saline 113 % of control | endpoint: mean survival time, dose: 90.0 mg/kg/injection, schedule: Q## X004 (ip), vehicle: water 98 % of control | endpoint: mean survival time, dose: 100.0 mg/kg/injection, schedule: Q01DX001 (ip), vehicle: saline 104 % of control and 110 % of control | endpoint: mean survival time, dose: 100.0 mg/kg/injection, schedule: Q01DX001 (ip), vehicle: water 100 % of control | endpoint: mean survival time, dose: 100.0 mg/kg/injection, schedule: Q01DX005 (ip), vehicle: saline 116 % of control | endpoint: mean survival time, dose: 100.0 mg/kg/injection, schedule: Q01DX Z (sc), vehicle: saline 111 % of control | endpoint: mean survival time, dose: 100.0 mg/kg/injection, schedule: Q04DX003 (ip), vehicle: saline 111 % of control | endpoint: mean survival time, dose: 100.0 mg/kg/injection, schedule: Q04DX005 (ip), vehicle: saline 115 % of control | endpoint: mean survival time, dose: 100.0 mg/kg/injection, schedule: Q#A X Z (ip), vehicle: saline 105 % of control | endpoint: mean survival time, dose: 125.0 mg/kg/injection, schedule: Q01DX001 (ip), vehicle: saline 112 % of control | endpoint: mean survival time, dose: 150.0 mg/kg/injection, schedule: Q01DX001 (ip), vehicle: water 102 % of control | endpoint: mean survival time, dose: 160.0 mg/kg/injection, schedule: Q01DX009 (ip), vehicle: saline 100 % of control | endpoint: mean survival time, dose: 160.0 mg/kg/injection, schedule: Q01DX009 (oral), vehicle: saline 101 % of control | endpoint: mean survival time, dose: 160.0 mg/kg/injection, schedule: Q01DX Z (ip), vehicle: saline 110 % of control | endpoint: mean survival time, dose: 175.0 mg/kg/injection, schedule: Q07DX003 (ip), vehicle: saline 114 % of control | endpoint: mean survival time, dose: 200.0 mg/kg/injection, schedule: Q01DX001 (ip), vehicle: saline 106 % of control and 107 % of control | endpoint: mean survival time, dose: 200.0 mg/kg/injection, schedule: Q01DX017 (ip), vehicle: saline 100 % of control | endpoint: mean survival time, dose: 200.0 mg/kg/injection, schedule: Q01DX Z (im), vehicle: saline 107 % of control | endpoint: mean survival time, dose: 200.0 mg/kg/injection, schedule: Q01DX Z (ip), vehicle: carboxymethylcellulose (CMC) 94 % of control | endpoint: mean survival time, dose: 200.0 mg/kg/injection, schedule: Q01DX Z (ip), vehicle: saline 102 % of control | endpoint: mean survival time, dose: 200.0 mg/kg/injection, schedule: Q01DX Z (sc), vehicle: saline 96 % of control | endpoint: mean survival time, dose: 200.0 mg/kg/injection, schedule: Q04DX002 (ip), vehicle: water 112 % of control | endpoint: mean survival time, dose: 225.0 mg/kg/injection, schedule: Q01DX001 (ip), vehicle: water 110 % of control | endpoint: mean survival time, dose: 250.0 mg/kg/injection, schedule: Q01DX001 (ip), vehicle: saline 109 % of control | endpoint: mean survival time, dose: 250.0 mg/kg/injection, schedule: Q01DX Z (ip), vehicle: saline 95 % of control | endpoint: mean survival time, dose: 270.0 mg/kg/injection, schedule: Q01DX009 (ip), vehicle: saline 115 % of control | endpoint: mean survival time, dose: 270.0 mg/kg/injection, schedule: Q## X009 (ip), vehicle: saline 115 % of control | endpoint: mean survival time, dose: 300.0 mg/kg/injection, schedule: Q02DX010 (ip), vehicle: other 108 % of control | endpoint: mean survival time, dose: 320.0 mg/kg/injection, schedule: Q01DX009 (ip), vehicle: saline 101 % of control and 108 % of control | endpoint: mean survival time, dose: 320.0 mg/kg/injection, schedule: Q01DX009 (oral), vehicle: saline 93 % of control | endpoint: mean survival time, dose: 335.0 mg/kg/injection, schedule: Q01DX001 (ip), vehicle: saline 115 % of control | endpoint: mean survival time, dose: 350.0 mg/kg/injection, schedule: Q01DX Z (ip), vehicle: saline 104 % of control | endpoint: mean survival time, dose: 375.0 mg/kg/injection, schedule: Q04DX003 (ip), vehicle: saline 112 % of control | endpoint: mean survival time, dose: 400.0 mg/kg/injection, schedule: Q01DX001 (ip), vehicle: saline 116 % of control | endpoint: mean survival time, dose: 400.0 mg/kg/injection, schedule: Q01DX009 (ip), vehicle: saline 102 % of control | endpoint: mean survival time, dose: 400.0 mg/kg/injection, schedule: Q01DX Z (oral), vehicle: saline 105 % of control | endpoint: mean survival time, dose: 400.0 mg/kg/injection, schedule: Q02DX009 (ip), vehicle: saline 100 % of control | endpoint: mean survival time, dose: 450.0 mg/kg/injection, schedule: Q02DX010 (ip), vehicle: carboxymethylcellulose (CMC) 113 % of control | endpoint: mean survival time, dose: 450.0 mg/kg/injection, schedule: Q02DX010 (ip), vehicle: other 92 % of control | endpoint: mean survival time, dose: 500.0 mg/kg/injection, schedule: Q04DX003 (ip), vehicle: saline 105 % of control | endpoint: mean survival time, dose: 640.0 mg/kg/injection, schedule: Q01DX009 (ip), vehicle: saline 95 % of control | endpoint: mean survival time, dose: 640.0 mg/kg/injection, schedule: Q01DX009 (oral), vehicle: saline 96 % of control | endpoint: mean survival time, dose: 700.0 mg/kg/injection, schedule: Q07DX003 (ip), vehicle: saline 111 % of control | endpoint: mean survival time, dose: 714.0 mg/kg/injection, schedule: Q02DX008 (ip), vehicle: saline 113 % of control | endpoint: mean survival time, dose: 750.0 mg/kg/injection, schedule: Q01DX001 (ip), vehicle: saline 112 % of control | endpoint: mean survival time, dose: 800.0 mg/kg/injection, schedule: Q01DX001 (ip), vehicle: water 108 % of control | endpoint: mean survival time, dose: 800.0 mg/kg/injection, schedule: Q01DX Z (oral), vehicle: saline 108 % of control | endpoint: mean survival time, dose: 800.0 mg/kg/injection, schedule: Q04DX003 (ip), vehicle: saline 113 % of control | endpoint: mean survival time, dose: 800.0 mg/kg/injection, schedule: Q04DX005 (ip), vehicle: saline 114 % of control | endpoint: mean survival time, dose: 1071.0 mg/kg/injection, schedule: Q02DX008 (ip), vehicle: saline 104 % of control | endpoint: mean survival time, dose: 1344.0 mg/kg/injection, schedule: Q## X032 (ip), vehicle: water 107 % of control | endpoint: median survival time, dose: 160.0 mg/kg/injection, schedule: Q01DX009 (ip), vehicle: saline 100 % of control | endpoint: median survival time, dose: 320.0 mg/kg/injection, schedule: Q01DX009 (ip), vehicle: saline 106 % of control
